Data on three compounds can be found in patent US20250352596A1, “DIETARY SUPPLEMENTS FOR MOOD SUPPORT” (Melaleuca, Inc., priority 2024, published 2025).

What all share (assay type): biochemical
One experiment addresses T1, GRK2 (Homo sapiens, UniProt P25098).
T1 sequence (P25098 1-689): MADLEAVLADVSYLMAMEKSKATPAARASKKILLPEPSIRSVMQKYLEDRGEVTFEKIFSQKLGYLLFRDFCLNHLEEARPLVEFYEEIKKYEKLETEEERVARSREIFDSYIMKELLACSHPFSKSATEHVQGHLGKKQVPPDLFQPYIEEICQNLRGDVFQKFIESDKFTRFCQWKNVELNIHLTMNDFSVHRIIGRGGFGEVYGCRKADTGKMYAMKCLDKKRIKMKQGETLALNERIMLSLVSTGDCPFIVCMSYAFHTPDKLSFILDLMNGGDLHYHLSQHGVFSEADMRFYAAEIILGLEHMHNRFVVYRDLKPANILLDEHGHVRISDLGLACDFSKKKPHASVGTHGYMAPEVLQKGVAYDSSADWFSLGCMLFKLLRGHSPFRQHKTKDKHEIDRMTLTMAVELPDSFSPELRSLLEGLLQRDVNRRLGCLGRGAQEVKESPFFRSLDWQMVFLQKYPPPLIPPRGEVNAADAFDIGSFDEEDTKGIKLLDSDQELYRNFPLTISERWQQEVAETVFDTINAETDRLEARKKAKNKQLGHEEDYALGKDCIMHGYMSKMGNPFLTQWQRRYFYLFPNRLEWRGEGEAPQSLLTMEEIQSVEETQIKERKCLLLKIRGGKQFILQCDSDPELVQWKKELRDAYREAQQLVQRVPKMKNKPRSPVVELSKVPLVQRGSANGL
Put plainly: kinase inhibition, IC50 of Blend A, ingredients and control.

The target of the next experiment is GSK3β (Homo sapiens, UniProt P49841). The description is as above. The following applies: follow up investigation; for inositol the upper limit of use (1 mM) was used in the calculation.
Chain of GSK3β (P49841 whole entry, species assumed): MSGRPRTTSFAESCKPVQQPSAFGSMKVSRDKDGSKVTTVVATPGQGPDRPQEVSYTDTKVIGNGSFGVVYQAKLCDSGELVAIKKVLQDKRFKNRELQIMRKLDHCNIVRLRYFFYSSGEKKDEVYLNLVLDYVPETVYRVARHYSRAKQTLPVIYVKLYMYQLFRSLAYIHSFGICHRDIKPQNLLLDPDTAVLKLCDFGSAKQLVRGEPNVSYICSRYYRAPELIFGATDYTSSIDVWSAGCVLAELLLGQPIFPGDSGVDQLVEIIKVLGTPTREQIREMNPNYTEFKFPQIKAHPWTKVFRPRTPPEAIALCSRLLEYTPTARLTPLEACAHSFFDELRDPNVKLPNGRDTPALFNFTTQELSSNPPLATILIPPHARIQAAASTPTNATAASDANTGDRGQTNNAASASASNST
Another experiment concerns the target GSK3α (Homo sapiens, UniProt P49840). Described as above. The following applies: follow up investigation; for inositol the upper limit of use (1 mM) was used in the calculation.
A further experiment concerns the target ERK1 (Homo sapiens, UniProt P27361). The experiment in a line: kinase inhibition screen, IC50 of Blend A vs control compound. The following applies: initial investigation, Table 17; Blend A head reads IC50* (asterisk unexplained). From the text: The cellular mechanism of action of known pharmaceutical compounds targeting mental health require the inhibition of individual enzymes. For example, one of the most well-known pharmaceuticals utilized in the mental health space, lithium, can trace its efficacy in part to the inhibition of an enzyme called glycogen synthase kinase 3 (GSK3). A technique similar to one used in the pharmaceutical industry was used to determine study a mood support composition. See, e.g., Duong-Ly, K. C. & Peterson, J. R. Curr. Protoc. Pharmacol. Chapter 2, Unit2.9 (2013); Ma, H. et al. Expert Opin. Drug Discov.
Within the body, protein kinases are responsible for carrying out cellular and intracellular actions, such as cell-to-cell signaling, neurotransmitter regulation, and hormone release. Several protein kinases are known to influence mood, and many are targets of therapeutic drugs. As a natural alternative to pharmaceuticals, Blend A was screened for efficacy of inhibiting 18 common, mood-related drug targets, including 17 kinases and 1 enzyme.

Chain of GSK3α (P49840 whole entry, species assumed): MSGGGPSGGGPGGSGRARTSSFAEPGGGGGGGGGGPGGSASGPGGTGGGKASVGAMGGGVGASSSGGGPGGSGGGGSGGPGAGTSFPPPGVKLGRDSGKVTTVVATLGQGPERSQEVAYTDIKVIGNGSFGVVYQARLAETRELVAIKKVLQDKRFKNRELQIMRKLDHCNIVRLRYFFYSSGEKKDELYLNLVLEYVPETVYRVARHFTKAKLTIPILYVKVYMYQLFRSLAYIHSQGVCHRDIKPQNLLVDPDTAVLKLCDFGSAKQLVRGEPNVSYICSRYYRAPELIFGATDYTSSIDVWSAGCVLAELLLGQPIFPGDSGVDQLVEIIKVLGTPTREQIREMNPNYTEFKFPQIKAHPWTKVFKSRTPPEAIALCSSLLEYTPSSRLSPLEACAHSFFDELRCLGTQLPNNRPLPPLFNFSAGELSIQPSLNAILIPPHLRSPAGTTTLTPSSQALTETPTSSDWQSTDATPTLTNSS
Chain of ERK1 (P27361 whole entry, species assumed): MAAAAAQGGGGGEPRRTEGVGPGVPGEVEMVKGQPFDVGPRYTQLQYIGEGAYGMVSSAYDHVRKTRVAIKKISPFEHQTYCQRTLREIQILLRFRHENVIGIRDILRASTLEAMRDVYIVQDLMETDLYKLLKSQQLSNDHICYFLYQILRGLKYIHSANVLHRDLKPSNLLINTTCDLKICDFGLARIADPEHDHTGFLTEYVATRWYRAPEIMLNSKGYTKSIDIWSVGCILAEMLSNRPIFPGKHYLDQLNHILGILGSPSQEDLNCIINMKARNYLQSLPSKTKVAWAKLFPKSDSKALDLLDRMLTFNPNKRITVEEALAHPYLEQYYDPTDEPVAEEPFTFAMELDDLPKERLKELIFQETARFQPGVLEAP

Take `O[C@H]1[C@H](O)[C@@H](O)[C@H](O)[C@@H](O)[C@H]1O` [Inositol, inositol]: the “efficacy for inhibiting the target, in words” value on GRK2 (follow up investigation, for inositol the upper limit of use (1 mM) was used in the calculation) was “did not demonstrate efficacy”; at GSK3β it was “did not demonstrate efficacy”; on GSK3α, “did not demonstrate efficacy”.
In general, IC50 refers to the concentration that gives 50% inhibition. For the compound `O=C(Nc1ccc2[nH]nc(-c3ccncc3)c2c1)[C@@H]1CCN(CC(=O)N2CCN(c3ccc(-c4ncccn4)cc3)CC2)C1` [SCH772984], the 50% inhibitory concentration (IC50) against ERK1 turned out to be 5.57 nM.
With `CN[C@@H]1C[C@H]2O[C@@](C)([C@@H]1OC)n1c3ccccc3c3c4c(c5c6ccccc6n2c5c31)C(=O)NC4` [STAUROSPORINE, staurosporine, reference compound], the “Reciprocal Sum” value on GRK2 (Table 19, sum of the two analyses, each 50% weight) was 1.60E+06.
